According to article PMC10259452 (Journal of Medicinal Chemistry, 2023):
Where two headings read alike, the source gives them in different places.

Legend:
[1] = system: human peripheral blood mononuclear cells (PBMCs)
[2] = microsomes
[3] = dog, microsomes, pH 7.4
[4] = system: MDR1-MDCKII cells
[5] = system: Caco-2 cells
[6] = human, microsomes, pH 7.4
[7] = rat, microsomes, pH 7.4
[8] = mouse, microsomes, pH 7.4
[9] = target: T1, human GAL4-RORγ (Homo sapiens, UniProt P51449); assay: human GAL4-RORγ reporter assay; format: cell-based
T1 sequence (P51449 269-508 limits assumed): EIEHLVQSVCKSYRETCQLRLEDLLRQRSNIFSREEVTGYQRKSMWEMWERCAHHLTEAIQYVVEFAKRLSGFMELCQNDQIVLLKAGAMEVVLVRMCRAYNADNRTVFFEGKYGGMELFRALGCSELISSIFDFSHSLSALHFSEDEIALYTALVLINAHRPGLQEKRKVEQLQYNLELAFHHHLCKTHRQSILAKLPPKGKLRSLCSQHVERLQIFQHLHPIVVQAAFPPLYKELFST

[10] = pH 7.4

| intrinsic clearance (Clin) grade in words [2] | microsomal stability Clin [3] | MDR1-MDCKII permeability in the A–B direction, grade in words ([4]; MDCK-MDR1) | Caco-2 permeability in the A–B direction, grade in words ([5]; Caco-2) | recovery in Caco-2 permeability assay ([5]; human, Caco-2, pH 7.4) [%] | microsomal stability Clin [6] | microsomal stability Clin [7] | microsomal stability Clin [8] | dependence of solubility on pH (in words) [10] | SMILES | reduction in IL17A+ cells compared to control (in words) [1] | further results |
| --- | --- | --- | --- | --- | --- | --- | --- | --- | --- | --- | --- |
| moderate | 322/36/118/41 μL/min/mg | moderate | low permeability | – | 322/36/118/41 μL/min/mg | 322/36/118/41 μL/min/mg | 322/36/118/41 μL/min/mg | – | CSc1ncc(Cl)c(C(=O)Nc2sc3c(c2C(=O)NC2CCS(=O)(=O)C2)CCC(C)C3)n1 (centres unmarked) [Compound 3, 5-Chloro-N-(3-{[(1,1-dioxidotetrahydro-3-thienyl)amino]-carbonyl}-6-methyl-4,5,6,7-tetrahydro-1-benzothien-2-yl)-2-(methylthio)-4-pyrimidine-carboxamide] | – | active efflux / P-gp substrate in MDR1-MDCKII ([4]; MDCK-MDR1): active efflux and are P-gp substrates; effect of cyclosporine A on efflux ratio in MDR1-MDCKII cells ([4]; MDCK-MDR1): completely blocked; active efflux in Caco-2 ([5]; Caco-2): active efflux; effect of verapamil on efflux ratio in Caco-2 ([5]; Caco-2): decreased partially; stability in acidic pH (in words) [10]: unstable; IC50 [9]: 2.19 nM |
| moderate | 319/214/115/132 μL/min/mg | moderate | moderate | < 80 | 319/214/115/132 μL/min/mg | 319/214/115/132 μL/min/mg | 319/214/115/132 μL/min/mg | – | CN1CCN(CC(=O)Nc2sc3c(c2C(=O)NCc2ccccc2)CCCC3)CC1 [Compound 10, N-Benzyl-2-{[(4-methyl-1-piperazinyl) Acetyl]amino}-4,5,6,7-tetrahydro-1-benzothiophene-3-carboxamide] | greatest reduction | IL17A secretion from polarized PBMCs compared to the vehicle [1]: decreased; IL21 secretion from polarized PBMCs compared to the vehicle [1]: decreased; reduction in percentage of IL17A+ cells [1]: 40–60%; IC50 [9]: 0.82 nM |
| high | 2345/510/942/260 μL/min/mg | low permeability | low permeability | < 80 | 2345/510/942/260 μL/min/mg | 2345/510/942/260 μL/min/mg | 2345/510/942/260 μL/min/mg | – | CC1CCN(CC(=O)Nc2sc3c(c2C(=O)NCc2ccccc2)CCCC3)CC1 [Compound 11, N-Benzyl-2-{[(4-methyl-1-piperidinyl) Acetyl]amino}-4,5,6,7-tetrahydro-1-benzothiophene-3-carboxamide] | – | MDR1-MDCKII permeability efflux cyclosporine A ([4]; dog, MDCK-MDR1, pH 7.4): 0.7; Caco-2 permeability efflux verapamil ([5]; human, Caco-2, pH 7.4): 1.2 |
| moderate | 414/404/507/369 μL/min/mg | – | – | – | 414/404/507/369 μL/min/mg | 414/404/507/369 μL/min/mg | 414/404/507/369 μL/min/mg | – | C[C@@H]1CCN(C(=O)c2c(NC(=O)c3cccnc3)sc3c2CCCC3)[C@H](C)C1 [Compound 13, N-(3-((2R,4R)-2,4-Dimethylpiperidine-1-carbonyl)-4,5,6,7-tetrahydrobenzo[b]thiophen-2-yl) Nicotinamide] | greatest reduction | IL17A secretion from polarized PBMCs compared to the vehicle [1]: decreased; IL21 secretion from polarized PBMCs compared to the vehicle [1]: decreased; reduction in percentage of IL17A+ cells [1]: 40–60% |
| high | 2142/954/887/332 μL/min/mg | – | – | – | 2142/954/887/332 μL/min/mg | 2142/954/887/332 μL/min/mg | 2142/954/887/332 μL/min/mg | inversely proportional | Cn1ccnc1SCC(=O)Nc1sc2c(c1C(=O)NCc1ccccc1)CCCC2 [Compound 16, N-Benzyl-2-(2-((1-methyl-1H-imidazole-2-yl)thio)acetamido)-4,5,6,7-tetrahydrobenzo[b]thiophene-3-carboxamide] | – | – |
| – | 46/23/7/11 μL/min/mg | moderate | moderate | – | 46/23/7/11 μL/min/mg | 46/23/7/11 μL/min/mg | 46/23/7/11 μL/min/mg | inversely proportional | O=C(Nc1sc2c(c1C(=O)N1CCC(CO)C1)CCCC2)c1cccnc1 (centres unmarked) [Compound 17, N-(3-(3-(Hydroxymethyl)pyrrolidine-1-carbonyl)-4,5,6,7-tetrahydrobenzo[b]thiophen-2-yl) Nicotinamide] | – | active efflux / P-gp substrate in MDR1-MDCKII ([4]; MDCK-MDR1): active efflux and are P-gp substrates; active efflux in Caco-2 ([5]; Caco-2): active efflux |

Second part, the molecule before the results:

| SMILES | intrinsic clearance (Clin) grade in words [2] | microsomal stability Clin [3] | MDR1-MDCKII permeability in the A–B direction, grade in words ([4]; MDCK-MDR1) | Caco-2 permeability in the A–B direction, grade in words ([5]; Caco-2) | recovery in Caco-2 permeability assay ([5]; human, Caco-2, pH 7.4) [%] | microsomal stability Clin [6] | microsomal stability Clin [7] | microsomal stability Clin [8] | dependence of solubility on pH (in words) [10] | reduction in IL17A+ cells compared to control (in words) [1] | further results |
| --- | --- | --- | --- | --- | --- | --- | --- | --- | --- | --- | --- |
| CSc1ncc(Cl)c(C(=O)Nc2sc3c(c2C(=O)NCc2ccccc2)CCCC3)n1 [Compound 2, N-(3-(Benzylcarbamoyl)-4,5,6,7-tetrahydrobenzo[b]thiophen-2-yl)-5-chloro-2-(methylthio) Pyrimidine-4-carboxamide] | moderate | 127/126/267/115 μL/min/mg | moderate | moderate | < 80 | 127/126/267/115 μL/min/mg | 127/126/267/115 μL/min/mg | 127/126/267/115 μL/min/mg | – | greatest reduction | IL17A secretion from polarized PBMCs compared to the vehicle [1]: decreased; IL21 secretion from polarized PBMCs compared to the vehicle [1]: decreased; cell death / cell viability by flow cytometry [1]: no sign of cell death or decrease in cell viability; reduction in percentage of IL17A+ cells [1]: 40–60%; reduction of percentage of IL17A+ cells, multiple donors [1]: 20–40%; reduction of percentage of IL21+ cells, multiple donors [1]: 20–40%; IC50 [9]: 0.75 nM |
| CCC1CCc2c(sc(NC(=O)c3ccnn3C)c2C(=O)Nc2ccccc2C)C1 (centres unmarked) [Compound 4, N-(6-Ethyl-3-{[(2-methylphenyl)amino]carbonyl}-4,5,6,7-tetrahydro-1-benzothien-2-yl)-1-methyl-1H-pyrazole-5-carboxamide] | – | 11/22/29/24 μL/min/mg | – | – | < 80 | 11/22/29/24 μL/min/mg | 11/22/29/24 μL/min/mg | 11/22/29/24 μL/min/mg | not affected | – | – |
| CC1CCc2c(sc(NC(=O)c3ccccc3F)c2C(=O)N2CCN(C)CC2)C1 (centres unmarked) [Compound 6, 2-Fluoro-N-{6-methyl-3-[(4-methyl-1-piperazinyl)carbonyl]-4,5,6,7-tetrahydro-1-benzothien-2-yl} Benzamide] | moderate | 546/91/116/60 μL/min/mg | – | – | – | 546/91/116/60 μL/min/mg | 546/91/116/60 μL/min/mg | 546/91/116/60 μL/min/mg | inversely proportional | – | – |
| O=C(CN1CCCCC1)Nc1sc2c(c1C(=O)NCc1ccccc1)CCCC2 [Compound 9, N-Benzyl-2-[(1-piperidinylacetyl)amino]-4,5,6,7-tetrahydro-1-benzothiophene-3-carboxamide] | – | – | – | – | – | – | – | – | – | greatest reduction | – |
| CC1CCCN1C(=O)c1c(NC(=O)c2cccnc2)sc2c1CCCC2 (centres unmarked) [Compound 12, N-(3-(2-Methylpyrrolidine-1-carbonyl)-4,5,6,7-tetrahydro-benzo[b]thiophen-2-yl) Nicotinamide] | – | 71/67/97/53 μL/min/mg | high | high permeability | – | 71/67/97/53 μL/min/mg | 71/67/97/53 μL/min/mg | 71/67/97/53 μL/min/mg | – | – | – |
